This note sets out measurements from paper PMC10175918 (Communications Biology, 2023).

Holding throughout (test): TGFα-shedding assay-based GPCR screening with chimeric Gα subunit proteins
Format in all cases: cell-based

Assay [1] concerns the target T1, 348 GPCRs (Homo sapiens, UniProt P18089).
T1 construct: expressed in transfected cells; host or cells: HEK293A
T1 sequence (P18089 1-450): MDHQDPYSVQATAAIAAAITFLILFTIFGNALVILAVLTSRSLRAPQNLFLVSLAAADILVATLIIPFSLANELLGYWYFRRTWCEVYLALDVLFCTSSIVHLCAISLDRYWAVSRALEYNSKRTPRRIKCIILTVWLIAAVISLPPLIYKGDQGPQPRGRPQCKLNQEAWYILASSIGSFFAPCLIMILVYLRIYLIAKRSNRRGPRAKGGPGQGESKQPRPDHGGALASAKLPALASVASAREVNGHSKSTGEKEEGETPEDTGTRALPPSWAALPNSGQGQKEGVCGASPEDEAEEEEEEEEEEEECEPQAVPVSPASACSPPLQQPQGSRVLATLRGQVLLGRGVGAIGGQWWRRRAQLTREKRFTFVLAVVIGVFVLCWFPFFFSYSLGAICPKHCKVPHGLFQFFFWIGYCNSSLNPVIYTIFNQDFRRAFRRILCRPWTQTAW

Assay [2] concerns the target T2, 348 GPCRs (Homo sapiens, UniProt P32239).
T2 sequence (P32239 1-447): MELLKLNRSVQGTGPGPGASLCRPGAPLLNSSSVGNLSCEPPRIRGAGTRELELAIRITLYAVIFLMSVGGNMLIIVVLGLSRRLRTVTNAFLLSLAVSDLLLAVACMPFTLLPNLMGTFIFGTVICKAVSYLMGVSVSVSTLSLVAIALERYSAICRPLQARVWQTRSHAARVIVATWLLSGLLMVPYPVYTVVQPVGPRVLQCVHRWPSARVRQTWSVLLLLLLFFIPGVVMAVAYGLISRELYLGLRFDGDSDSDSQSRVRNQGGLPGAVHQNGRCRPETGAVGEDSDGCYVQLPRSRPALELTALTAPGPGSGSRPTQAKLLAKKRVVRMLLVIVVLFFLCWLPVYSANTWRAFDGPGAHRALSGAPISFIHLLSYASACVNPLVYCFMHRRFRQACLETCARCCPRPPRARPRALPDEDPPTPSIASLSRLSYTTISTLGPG
To be noted: 10µM, Favipiravir 100μM.

Assay [3] has as its target T3, 348 GPCRs (Homo sapiens, UniProt P32249).
T3 construct: expressed in transfected cells; host or cells: HEK293A
The following applies: EBI2 (G protein-coupled receptor 183 (Epstein-Barr Virus Induced Gene 2)); 10µM, Favipiravir 100μM.

Assay [4] addresses T4, 348 GPCRs (Homo sapiens, UniProt P43119).
T4 construct: expressed in transfected cells; host or cells: HEK293A
The following applies: 10µM, Favipiravir 100μM.

Assay [5] addresses T5, 348 GPCRs (Homo sapiens, UniProt Q14330).
T5 construct: expressed in transfected cells; host or cells: HEK293A
T5 sequence (Q14330 1-331): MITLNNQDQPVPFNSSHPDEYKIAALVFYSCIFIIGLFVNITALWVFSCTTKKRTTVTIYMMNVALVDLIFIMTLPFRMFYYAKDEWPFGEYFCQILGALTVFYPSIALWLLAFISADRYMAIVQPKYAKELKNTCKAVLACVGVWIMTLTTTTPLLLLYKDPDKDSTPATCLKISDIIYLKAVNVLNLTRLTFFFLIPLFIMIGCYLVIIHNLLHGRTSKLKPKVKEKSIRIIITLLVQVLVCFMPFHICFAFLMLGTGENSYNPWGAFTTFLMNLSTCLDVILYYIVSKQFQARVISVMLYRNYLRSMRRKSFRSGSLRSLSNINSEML
The following applies: GPR18 (G protein-coupled receptor 18); 10µM, Favipiravir 100μM.

Assay [6] deals with T6, 348 GPCRs (Homo sapiens, UniProt Q86SM8).
T6 construct: expressed in transfected cells; host or cells: HEK293A
The following applies: 10µM, Favipiravir 100μM.

Assay [7] concerns the target T7, 348 GPCRs (Homo sapiens, UniProt Q8NDV2).
T7 construct: expressed in transfected cells; host or cells: HEK293A
The following applies: 10µM, Favipiravir 100μM.

The target of assay [8] is T8, 348 GPCRs (Homo sapiens, UniProt Q96P66).
T8 construct: expressed in transfected cells; host or cells: HEK293A
T8 sequence (Q96P66 1-508): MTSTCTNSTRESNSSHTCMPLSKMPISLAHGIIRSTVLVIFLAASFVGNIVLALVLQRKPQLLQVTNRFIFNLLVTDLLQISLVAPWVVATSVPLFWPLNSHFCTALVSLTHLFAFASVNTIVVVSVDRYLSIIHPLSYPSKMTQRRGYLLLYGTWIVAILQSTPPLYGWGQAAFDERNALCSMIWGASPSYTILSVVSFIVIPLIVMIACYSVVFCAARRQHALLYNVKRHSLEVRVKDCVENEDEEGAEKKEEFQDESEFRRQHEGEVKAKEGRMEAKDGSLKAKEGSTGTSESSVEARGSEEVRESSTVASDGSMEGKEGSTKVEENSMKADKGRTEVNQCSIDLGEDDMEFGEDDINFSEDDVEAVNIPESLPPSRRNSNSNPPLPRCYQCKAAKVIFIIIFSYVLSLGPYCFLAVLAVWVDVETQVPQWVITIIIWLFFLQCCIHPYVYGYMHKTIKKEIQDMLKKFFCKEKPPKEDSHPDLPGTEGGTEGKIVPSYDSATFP

The target in assay [9] is T9, 348 GPCRs (Homo sapiens, UniProt Q9NYW4).
T9 construct: expressed in transfected cells; host or cells: HEK293A
T9 sequence (Q9NYW4 1-299): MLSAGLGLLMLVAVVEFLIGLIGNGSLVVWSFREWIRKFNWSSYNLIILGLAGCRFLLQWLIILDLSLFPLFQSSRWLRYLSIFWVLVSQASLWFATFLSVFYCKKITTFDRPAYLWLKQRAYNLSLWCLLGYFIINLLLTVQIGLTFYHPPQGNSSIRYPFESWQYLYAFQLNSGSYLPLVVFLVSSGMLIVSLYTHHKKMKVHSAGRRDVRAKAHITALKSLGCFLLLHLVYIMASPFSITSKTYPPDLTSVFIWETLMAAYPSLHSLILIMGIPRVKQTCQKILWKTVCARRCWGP
The following applies: 10µM, Favipiravir 100μM.

Setting [10] is: CCKBR (cholecystokinin B receptor), read-out: % GPCR activation compared to TPA.
Where [11] appears, read: IP (prostaglandin I2 (prostacyclin) receptor), read-out: % GPCR activation compared to TPA.
Where [12] appears, read: MRGE (MAS-related GPR, member E), read-out: % GPCR activation compared to TPA.
Setting [13] is: MRGPRE (MAS-related GPR, member E), read-out: % GPCR activation compared to TPA.
Setting [14] is: GPR26 (G Protein-Coupled Receptor 26), read-out: % GPCR activation compared to TPA.
[15] abbreviates: TAS2R5 (taste receptor, type 2, member 5), read-out: % GPCR activation compared to TPA.
[16] abbreviates: read-out: % GPCR activation compared to TPA, GPCR α2B (adrenoceptor alpha 2B).
The mark [17] stands for this setting: read-out: % GPCR activation compared to TPA, CCKBR (cholecystokinin B receptor).
The mark [18] stands for this setting: read-out: % GPCR activation compared to TPA, IP (prostaglandin I2 (prostacyclin) receptor).
The mark [19] stands for this setting: read-out: % GPCR activation compared to TPA, MRGE (MAS-related GPR, member E).
Setting [20] is: read-out: % GPCR activation compared to TPA, MRGPRE (MAS-related GPR, member E).
[21] abbreviates: read-out: % GPCR activation compared to TPA, GPR26 (G Protein-Coupled Receptor 26).
The mark [22] stands for this setting: read-out: % GPCR activation compared to TPA, GPCR GPR101 (G protein-coupled receptor 101).
The mark [23] stands for this setting: read-out: % GPCR activation compared to TPA, TAS2R5 (taste receptor, type 2, member 5).
[24] abbreviates: GPCR α2B (adrenoceptor alpha 2B), read-out: % GPCR activation compared to TPA.
Where [25] appears, read: GPCR GPR101 (G protein-coupled receptor 101), read-out: % GPCR activation compared to TPA.

Where two headings read alike, the source gives them in different places.

T3 sequence (P32249 whole entry): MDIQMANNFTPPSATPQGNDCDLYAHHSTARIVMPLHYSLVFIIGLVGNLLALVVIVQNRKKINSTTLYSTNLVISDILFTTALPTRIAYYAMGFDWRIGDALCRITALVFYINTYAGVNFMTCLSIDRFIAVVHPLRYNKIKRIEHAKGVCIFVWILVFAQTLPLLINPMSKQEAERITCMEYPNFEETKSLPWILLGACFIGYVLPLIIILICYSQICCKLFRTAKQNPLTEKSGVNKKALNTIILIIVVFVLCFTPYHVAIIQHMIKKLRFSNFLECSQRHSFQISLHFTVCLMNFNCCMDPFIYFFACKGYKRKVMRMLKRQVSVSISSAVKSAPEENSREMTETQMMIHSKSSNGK
T6 sequence (Q86SM8 whole entry): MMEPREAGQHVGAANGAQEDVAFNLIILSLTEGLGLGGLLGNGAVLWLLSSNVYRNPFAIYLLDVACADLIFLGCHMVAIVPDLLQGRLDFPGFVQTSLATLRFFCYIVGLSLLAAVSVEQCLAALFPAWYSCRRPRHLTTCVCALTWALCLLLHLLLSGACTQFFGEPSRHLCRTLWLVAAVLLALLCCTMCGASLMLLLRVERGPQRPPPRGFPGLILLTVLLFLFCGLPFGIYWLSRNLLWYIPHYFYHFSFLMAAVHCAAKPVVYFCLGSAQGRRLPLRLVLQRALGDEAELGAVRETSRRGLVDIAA
T4 sequence (P43119 whole entry): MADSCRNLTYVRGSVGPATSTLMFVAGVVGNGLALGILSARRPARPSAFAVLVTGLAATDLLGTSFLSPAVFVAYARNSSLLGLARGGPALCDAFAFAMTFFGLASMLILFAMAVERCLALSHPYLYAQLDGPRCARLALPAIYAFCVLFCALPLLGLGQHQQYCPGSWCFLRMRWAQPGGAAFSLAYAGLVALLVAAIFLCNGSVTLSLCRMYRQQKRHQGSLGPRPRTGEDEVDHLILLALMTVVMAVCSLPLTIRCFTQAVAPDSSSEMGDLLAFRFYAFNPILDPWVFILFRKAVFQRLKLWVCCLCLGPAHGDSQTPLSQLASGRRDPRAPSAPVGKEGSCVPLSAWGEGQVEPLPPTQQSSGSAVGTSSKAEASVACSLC
T7 sequence (Q8NDV2 whole entry): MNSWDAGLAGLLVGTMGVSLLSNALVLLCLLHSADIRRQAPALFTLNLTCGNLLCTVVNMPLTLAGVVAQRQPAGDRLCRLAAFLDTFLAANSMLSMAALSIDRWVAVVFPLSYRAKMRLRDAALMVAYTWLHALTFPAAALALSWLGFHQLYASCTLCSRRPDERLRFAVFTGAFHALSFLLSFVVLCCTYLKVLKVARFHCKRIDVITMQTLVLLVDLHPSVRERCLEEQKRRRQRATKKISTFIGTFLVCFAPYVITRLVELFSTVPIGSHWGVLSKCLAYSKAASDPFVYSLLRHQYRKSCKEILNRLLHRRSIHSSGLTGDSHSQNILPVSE

Consider `NC(=O)c1nc(F)cnc1O` [favipiravir, 6-fluoro-3-hydroxy-2-pyrazinecarboxamide], for which the activation at 100 µM at 348 GPCRs [1] (GPCR α2B (adrenoceptor alpha 2B), 100μM, read-out: % GPCR activation compared to TPA) was -4.03%; at 348 GPCRs [2] (setting [10]), 4.12%; on 348 GPCRs [4] (setting [11]), -2.05%; on 348 GPCRs [6] (setting [12]) it was -2.09%; on 348 GPCRs [6] (setting [13]), -1.34%; on 348 GPCRs [7] (setting [14]), -0.29%. The activation at 100 µM at 348 GPCRs [8] (GPCR GPR101 (G protein-coupled receptor 101), 100μM, read-out: % GPCR activation compared to TPA) was -0.717%; on 348 GPCRs [9] (setting [15]) it was 2.49%. The “% GPCR activation compared to TPA” value at 348 GPCRs [3] is given as -1.156%; on 348 GPCRs [5], -1%.
`CC(C)OC(=O)[C@H](C)N[P@](=O)(OC[C@H]1O[C@@H](n2ccc(=O)[nH]c2=O)[C@](C)(F)[C@@H]1O)Oc1ccccc1` [sofosbuvir]: the activation at 10 µM on 348 GPCRs [1] (setting [16]) is 0.619%; on 348 GPCRs [8] (setting [22]) it was -3.4%. Also, the activation at 100 µM was -2.44% on 348 GPCRs [2] (setting [17]); -1.51% at 348 GPCRs [4] (setting [18]); -1.05% at 348 GPCRs [6] (setting [19]); 0.355% on 348 GPCRs [6] (setting [20]); 0.171% at 348 GPCRs [7] (setting [21]); -1.2% on 348 GPCRs [9] (setting [23]). In addition, the “% GPCR activation compared to TPA” value on 348 GPCRs [3] is -0.7581%; on 348 GPCRs [5], -3.042%.
As for `CCC(CC)COC(=O)[C@H](C)N[P@](=O)(OC[C@H]1O[C@@](C#N)(c2ccc3c(N)ncnn23)[C@H](O)[C@@H]1O)Oc1ccccc1` [remdesivir], the activation at 10 µM on 348 GPCRs [1] (setting [16]) is 5.93%; at 348 GPCRs [8] (setting [22]), 1.7%. The activation at 100 µM was 7.72% at 348 GPCRs [2] (setting [17]); -0.107% at 348 GPCRs [4] (setting [18]); -2.75% on 348 GPCRs [6] (setting [19]); -1.08% at 348 GPCRs [6] (setting [20]); 0.188% on 348 GPCRs [7] (setting [21]); 3.92% on 348 GPCRs [9] (setting [23]). For the same compound, the “% GPCR activation compared to TPA” value on 348 GPCRs [3] stood at 0.4815%; at 348 GPCRs [5], 1.118%.
`N#C[C@@]1(c2ccc3c(N)ncnn23)O[C@H](CO)[C@@H](O)[C@H]1O` [GS441524]: the values for the activation at 10 µM at 348 GPCRs [1] (setting [24]) and at 348 GPCRs [8] (setting [25]) were -2.28% and -0.779%, respectively. Also, the activation at 100 µM was 6.14% on 348 GPCRs [2] (setting [10]); -1.08% on 348 GPCRs [4] (setting [11]); -0.92% at 348 GPCRs [6] (setting [12]); -0.879% at 348 GPCRs [6] (setting [13]); -0.116% on 348 GPCRs [7] (setting [14]); 0.212% at 348 GPCRs [9] (setting [15]). In addition, the “% GPCR activation compared to TPA” value at 348 GPCRs [3] was -1.471%; on 348 GPCRs [5], 2.081%.
For `CC(C)C(=O)OC[C@H]1O[C@@H](n2ccc(NO)nc2=O)[C@H](O)[C@@H]1O` [molnupiravir], the activation at 10 µM on 348 GPCRs [1] (setting [24]) is -2.53%; at 348 GPCRs [8] (setting [25]) it was -0.865%. Further, the activation at 100 µM is -2.83% at 348 GPCRs [2] (setting [10]); -1.76% at 348 GPCRs [4] (setting [11]); -1.17% at 348 GPCRs [6] (setting [12]); -1.32% at 348 GPCRs [6] (setting [13]); -0.581% on 348 GPCRs [7] (setting [14]); -0.247% on 348 GPCRs [9] (setting [15]). The entries for the “% GPCR activation compared to TPA” value on 348 GPCRs [3] and on 348 GPCRs [5] were -0.8417% and -5.385%, respectively.
